MIC, inhibition and CC50 data for three molecules are collected here from ChEMBL document CHEMBL3832881, “CO-ADD antimicrobial screening data of OSM samples” (2017).

SMILES strings stand for the structures. Values after ≈ are worked out from the molar mass of the structure shown.

Data set [1] concerns Staphylococcus aureus. Description: Antibacterial activity against Staphylococcus aureus MRSA ATCC 43300; MIC in CAMBH media using NBS plates. It counts as functional, ATCC 43300; MRSA. The settings on record: ASSAY_TEST Inhibition of Bacterial Growth, detection method Absorption (OD600), MEDIA CAMHB, plate type NBS, 384well, time 18 hr.
The test system of data set [2] is Acinetobacter baumannii. Description: Antibacterial activity against Acinetobacter baumannii ATCC 19606; Growth inhibition at 32 ug/mL in CAMBH media using NBS plates. It counts as functional, ATCC 19606; Type strain. The settings on record: Type strain, ASSAY_TEST Inhibition of Bacterial Growth, CONC 32 ug.mL-1, detection method Absorption (OD600), MEDIA CAMHB, plate type NBS, 384well, time 18 hr.

The test system of data set [3] is Cryptococcus neoformans. Briefly: Antifungal activity against Cryptococcus neoformans H99 ATCC 208821; Growth inhibition at 32 ug/mL in YNB media using NBS plates. It counts as functional, ATCC 208821; H99 Type strain. The settings on record: H99 Type strain, ASSAY_TEST Inhibition of Fungal Growth, CONC 32 ug.mL-1, detection method Resazurin, Absorption (OD600-OD570), plate type NBS, 384well, time 18 hr. (In general: Alamar Blue is a resazurin reagent that responds to reducing activity.)

The nature of data set [4]: Cytotoxicity against HEK293 cells; CC50 by Resazurin assay in DMEM (10% FBS) media using TC plates. Format: toxicity, cell-based, ATCC CRL1573. More on the design: time 18 hr. The settings on record: human.
Data set [5] deals with Pseudomonas aeruginosa. Briefly: Antibacterial activity against Pseudomonas aeruginosa ATCC 27853; Growth inhibition at 32 ug/mL in CAMBH media using NBS plates. Format: functional, ATCC 27853; Type strain. As to conditions: Type strain, ASSAY_TEST Inhibition of Bacterial Growth, CONC 32 ug.mL-1, detection method Absorption (OD600), MEDIA CAMHB, plate type NBS, 384well, time 18 hr.

The subject of data set [6] is Klebsiella pneumoniae. Briefly: Antibacterial activity against Klebsiella pneumoniae MDR ATCC 70063; MIC in CAMBH media using NBS plates. Format: functional, ATCC 700603; MDR. The settings on record: ATCC 700603, ASSAY_TEST Inhibition of Bacterial Growth, detection method Absorption (OD600), MEDIA CAMHB, plate type NBS, 384well, time 18 hr.
The subject of data set [7] is Candida albicans. Description: Antifungal activity against Candida albicans ATCC 90028; MIC in YNB media using NBS plates. Format: functional, ATCC 90028; CLSI reference. The settings on record: CLSI reference, ASSAY_TEST Inhibition of Fungal Growth, detection method Absorption (OD630), plate type NBS, 384well, time 18 hr.
Data set [8] concerns Escherichia coli. Description: Antibacterial activity against Escherichia coli ATCC 25922; Growth inhibition at 32 ug/mL in CAMBH media using NBS plates. As to conditions: Type strain, ASSAY_TEST Inhibition of Bacterial Growth, CONC 32 ug.mL-1, detection method Absorption (OD600), MEDIA CAMHB, plate type NBS, 384well, time 18 hr. Format: functional, ATCC 25922; Type strain.

The test system of data set [9] is Candida albicans. Description: Antifungal activity against Candida albicans ATCC 90028; Growth inhibition at 32 ug/mL in YNB media using NBS plates. Format: functional, ATCC 90028; CLSI reference. The settings on record: CLSI reference, ASSAY_TEST Inhibition of Fungal Growth, CONC 32 ug.mL-1, detection method Absorption (OD600), plate type NBS, 384well, time 18 hr.

In data set [10] the test system is Pseudomonas aeruginosa. Description: Antibacterial activity against Pseudomonas aeruginosa ATCC 27853; MIC in CAMBH media using NBS plates. Format: functional, ATCC 27853; Type strain. The settings on record: Type strain, ASSAY_TEST Inhibition of Bacterial Growth, detection method Absorption (OD600), MEDIA CAMHB, plate type NBS, 384well, time 18 hr.
The test system of data set [11] is Staphylococcus aureus. Description: Antibacterial activity against Staphylococcus aureus MRSA ATCC 43300; Growth inhibition at 32 ug/mL in CAMBH media using NBS plates. Format: functional, ATCC 43300; MRSA. The settings on record: ASSAY_TEST Inhibition of Bacterial Growth, CONC 32 ug.mL-1, detection method Absorption (OD600), MEDIA CAMHB, plate type NBS, 384well, time 18 hr.

For data set [12], the system named is Acinetobacter baumannii. Description: Antibacterial activity against Acinetobacter baumannii ATCC 19606; MIC in CAMBH media using NBS plates. Format: functional, ATCC 19606; Type strain. As to conditions: Type strain, ASSAY_TEST Inhibition of Bacterial Growth, detection method Absorption (OD600), MEDIA CAMHB, plate type NBS, 384well, time 18 hr.
Data set [13] concerns Escherichia coli. Briefly: Antibacterial activity against Escherichia coli ATCC 25922; MIC in CAMBH media using NBS plates. Format: functional, ATCC 25922; Type strain. As to conditions: Type strain, ASSAY_TEST Inhibition of Bacterial Growth, detection method Absorption (OD600), MEDIA CAMHB, plate type NBS, 384well, time 18 hr.
In data set [14] the test system is Cryptococcus neoformans. Briefly: Antifungal activity against Cryptococcus neoformans H99 ATCC 208821; MIC in YNB media using NBS plates. As to conditions: H99 Type strain, ASSAY_TEST Inhibition of Fungal Growth, detection method Resazurin, Absorption (OD600-OD570), plate type NBS, 384well, time 18 hr. Format: functional, ATCC 208821; H99 Type strain.
Data set [15] relates to Klebsiella pneumoniae. Briefly: Antibacterial activity against Klebsiella pneumoniae MDR ATCC 70063; Growth inhibition at 32 ug/mL in CAMBH media using NBS plates. Format: functional, ATCC 700603; MDR. The settings on record: ATCC 700603, ASSAY_TEST Inhibition of Bacterial Growth, CONC 32 ug.mL-1, detection method Absorption (OD600), MEDIA CAMHB, plate type NBS, 384well, time 18 hr.

As to `CCN1C(=O)c2cccc3c(-n4cc(CN5CCCNCCN(Cc6cn(-c7ccc8c9c(cccc79)C(=O)N(CC)C8=O)nn6)CCCNCC5)nn4)ccc(c23)C1=O.O=C(O)C(F)(F)F.O=C(O)C(F)(F)F`, the MIC in data set [1], in data set [6], in [7], in [10], in data set [12] and in data set [13] was above 32 µg/mL in each case. Also, the MIC in [14] was above 32 µg/mL. The inhibition at 32 µg/mL came out at 31.4% in data set [2]; 1.4% in [3]; 15.2% in data set [5]; 20.4% in data set [8]; 5.2% in [9]; 54% in [11]. In addition, the inhibition at 32 µg/mL in [15] stood at 17.2%. This molecule gave a CC50 at 18 h in data set [4] above 32 µg/mL.
Take `Clc1ccc(-c2nnc3cncc(OCCc4ccccc4)n23)cc1`: the MIC in data set [1] is above 32 µg/mL; in data set [6] it was above 32 µg/mL; in [7], 16 µg/mL (≈ 45.6 µM); in data set [10] it was above 32 µg/mL; in data set [12], above 32 µg/mL; in data set [13], above 32 µg/mL. In data set [14], this molecule registered an MIC above 32 µg/mL. Also, the inhibition at 32 µg/mL in [2] is 5.7%; in data set [3], -0.5%; in [5] it was 8.6%; in data set [8], 5.2%; in data set [9], 88.8%; in data set [11], 14.5%. For the same molecule, the inhibition at 32 µg/mL in [15] came out at 7.5%. The same molecule returned a CC50 at 18 h in data set [4] above 32 µg/mL.
On to `COc1ccc(-n2c(C)cc(CN3CCC4(CC3)OCCc3sccc34)c2C)cc1`, for which the MIC in [1], in data set [6], in [7], in data set [10], in data set [12] and in [13] was above 32 µg/mL in each case. The same molecule registered an MIC in [14] above 32 µg/mL. The inhibition at 32 µg/mL in data set [2] is 4.6%; in data set [3] it was -0.2%; in data set [5], 22.6%; in data set [8], 22.4%; in data set [9], 2.4%; in [11], 55%. The inhibition at 32 µg/mL in [15] was found to be 15.4%. In data set [4], this molecule returned a half-maximal cytotoxic concentration (CC50) at 18 h above 32 µg/mL.

A word on the MIC: it is the smallest concentration in the dilution series that meets the test's criterion for growth inhibition. Lower therefore signals a more susceptible organism. Broadly, the inhibition is the change of the read-out against control, counted positive when it falls. Usually CC50 stands for the concentration giving 50% cytotoxicity. Lower therefore signals greater toxicity to the cells.
